Literature values in patent publication US20140179719A1, “NOVEL AMORPHOUS SOLID DISPERSIONS OF VALGANCICLOVIR HYDROCHLORIDE” (priority 2012, published 2014).
Where two headings read alike, the source gives them in different places.

Conditions: ganciclovir administered orally

- bioavailability of ganciclovir, oral formulation: 6-10%
- bioavailability of ganciclovir, oral formulation (listed as gancilcovir): 6%
SMILES: Nc1nc(O)c2ncn(COC(CO)CO)c2n1 [Ganciclovir]
